From the NIST ThermoML archive (doi:10.1016/j.jct.2011.10.023)
± gives the expanded uncertainty stated by the source.

Conditions: Liquid, Vibrating tube method

CCCCCO [pentan-1-ol]
mass density [kg/m3]
Conditions	278.15 K	288.15 K	298.15 K	308.15 K	318.15 K	328.15 K	338.15 K	348.15 K	358.15 K
100 kPa	825.2 ± 2.4	818 ± 2.4	810.7 ± 2.4	803.3 ± 2.4	795.8 ± 2.4	788.2 ± 2.4	780.3 ± 2.4	772.3 ± 2.4	763.8 ± 2.4
1000 kPa	825.8 ± 2.4	818.7 ± 2.4	811.3 ± 2.4	804 ± 2.4	796.6 ± 2.4	789 ± 2.4	781.2 ± 2.4	773.1 ± 2.4	764.8 ± 2.4
5000 kPa	828.5 ± 2.4	821.5 ± 2.4	814.2 ± 2.4	807 ± 2.4	799.8 ± 2.4	792.3 ± 2.4	784.8 ± 2.4	776.9 ± 2.4	768.8 ± 2.4
10000 kPa	831.6 ± 2.4	824.8 ± 2.4	817.7 ± 2.4	810.7 ± 2.4	803.6 ± 2.4	796.3 ± 2.4	788.9 ± 2.4	781.2 ± 2.4	773.5 ± 2.4
15000 kPa	834.7 ± 2.4	828 ± 2.4	821 ± 2.4	814 ± 2.4	807.2 ± 2.4	800.1 ± 2.4	792.9 ± 2.4	785.5 ± 2.4	777.9 ± 2.4
20000 kPa	837.6 ± 2.4	831.1 ± 2.4	824.3 ± 2.4	817.5 ± 2.4	810.7 ± 2.4	803.8 ± 2.4	796.7 ± 2.4	789.5 ± 2.4	782.1 ± 2.4
25000 kPa	840.4 ± 2.4	834 ± 2.4	827.3 ± 2.4	820.7 ± 2.4	814 ± 2.4	807.2 ± 2.4	800.3 ± 2.4	793.3 ± 2.4	786.1 ± 2.4
30000 kPa	843.2 ± 2.4	836.9 ± 2.4	830.3 ± 2.4	823.8 ± 2.4	817.3 ± 2.4	810.6 ± 2.4	803.8 ± 2.4	796.9 ± 2.4	789.9 ± 2.4
35000 kPa	845.9 ± 2.4	839.7 ± 2.4	833.2 ± 2.4	826.8 ± 2.4	820.4 ± 2.4	813.8 ± 2.4	807.2 ± 2.4	800.4 ± 2.4	793.6 ± 2.4
40000 kPa	848.6 ± 2.4	842.4 ± 2.4	836 ± 2.4	829.7 ± 2.4	823.4 ± 2.4	817 ± 2.4	810.5 ± 2.4	803.8 ± 2.5	797.1 ± 2.5
45000 kPa	851.1 ± 2.4	845 ± 2.4	838.7 ± 2.4	832.5 ± 2.4	826.3 ± 2.5	820 ± 2.5	813.6 ± 2.5	807.1 ± 2.5	800.5 ± 2.5
50000 kPa	853.6 ± 2.4	847.6 ± 2.4	841.4 ± 2.5	835.3 ± 2.5	829.1 ± 2.5	822.9 ± 2.5	816.6 ± 2.5	810.3 ± 2.5	803.8 ± 2.5
55000 kPa	856.1 ± 2.5	850.1 ± 2.5	844 ± 2.5	838 ± 2.5	831.9 ± 2.5	825.8 ± 2.5	819.6 ± 2.5	813.3 ± 2.5	807 ± 2.5
60000 kPa	858.4 ± 2.5	852.5 ± 2.5	846.4 ± 2.5	840.4 ± 2.5	834.6 ± 2.5	828.4 ± 2.5	822.5 ± 2.5	816.2 ± 2.5	810 ± 2.5
